Experimental data as given in patent US20180280377A1, “Imidazo[4,5-c]quinolin-2-one Compounds and Their Use in Treating Cancer” (ASTRAZENECA AB, priority 2015, published 2018).

Tests used:
ATR = molecular target: T1, ATR (Homo sapiens, UniProt Q13535); assay: ATR cellular potency assay (pChk1 Ser345 in HT29 cells after 4NQO); type: cell-based; conditions: pChk1 (Ser 345); Table 2; read-out: Assay b) ATR Cell IC50
T1 construct: endogenous in cells; host or cells: HT29 cells (ECACC #85061109)
Description: (§1) The following assays were used to measure the effects of the compounds of the present invention: a) ATM cellular potency assay; b) PI3K cellular potency assay; c) mTOR cellular potency assay; d) ATR cellular potency assay. During the description of the assays, generally: • i. […] IC50 values were calculated using a smart fitting model in Genedata.
ATR is a PI3-kinase-related kinase which phosphorylates multiple substrates on serine or threonine residues in response to DNA damage during or replication blocks. Chk1, a downstream protein kinase of ATR, plays a key role in DNA damage checkpoint control. Activation of Chk1 involves phosphorylation of Ser317 and Ser345 (the latter regarded as the preferential target for phosphorylation/activation by ATR).
The following morning compound of Formula (I) in 100% DMSO were added to assay plates by acoustic dispensing. After 1 h incubation at 37° C. and 5% CO2, 40 nl of 3 mM 4NQO in 100% DMSO was added to all wells by acoustic dispensing, except minimum control wells which were left untreated with 4NQO to generate a null response control. Plates were returned to the incubator for a further 1 h. Then cells were fixed by adding 20 μl of 3.7% formaldehyde in PBS solution and incubating for 20 mins at r.t. Then […] of 0.1% Triton X100 in PBS was added and incubated for 10 minutes at r.t., to permeabalise cells. Then the plates were washed once with […] PBS, using a Biotek EL405 plate washer.
After 2 h incubation at r.t., the plates were washed three times with […] PBS, using a Biotek EL405 plate washer, and plates were then sealed with black plate seals until read. Plates were read using an ArrayScan VTI instrument, using an XF53 filter with 10× objective.

ATM = molecular target: T2, ATM (Homo sapiens, UniProt Q13315); assay: ATM cellular potency assay (pATM Ser1981 in irradiated HT29 cells); type: cell-based; conditions: 1 h compound, X-ray irradiation, pATM (Ser1981); Table 2; read-out: Assay a) ATM Cell IC50
T2 construct: endogenous in cells; host or cells: HT29 cells (ECACC #85061109)
Description: as §1
Most ATM molecules in the cell are rapidly phosphorylated on this site after doses of radiation as low as 0.5 Gy, and binding of a phosphospecific antibody is detectable after the introduction of only a few DNA double-strand breaks in the cell.
The rationale of the pATM assay is to identify inhibitors of ATM in cells. HT29 cells are incubated with test compounds for 1 h prior to X-ray-irradiation. 1 h later the cells are fixed and stained for pATM (Ser1981). The fluorescence is read on the arrayscan imaging platform.
The following morning compounds of Formula (I) in 100% DMSO were added to assay plates by acoustic dispensing. After 1 h incubation at 37° C. and 5% CO2, plates (up to 6 at a time) were irradiated using the X-RAD 320 instrument (PXi) with equivalent to 600 cGy. Plates were returned to the incubator for a further 1 h. Then cells were fixed by adding 20 μl of 3.7% formaldehyde in PBS solution and incubating for 20 minutes at r.t. before being washed with 50μl/well PBS, using a Biotek EL405 plate washer. Then 20 μl of 0.1% Triton X100 in PBS was added and incubated for 20 minutes at r.t., to permeabalise cells. Then the plates were washed once with 50 μl/well PBS, using a Biotek EL405 plate washer.
After 1 h incubation at r.t., the plates were washed three times with 50 μl/well PBS, using a Biotek EL405 plate washer, and plates were sealed and kept in PBS at 4° C. until read. Plates were read using an ArrayScan VTI instrument, using an XF53 filter with 10× objective.

T2 sequence (Q13315 whole entry): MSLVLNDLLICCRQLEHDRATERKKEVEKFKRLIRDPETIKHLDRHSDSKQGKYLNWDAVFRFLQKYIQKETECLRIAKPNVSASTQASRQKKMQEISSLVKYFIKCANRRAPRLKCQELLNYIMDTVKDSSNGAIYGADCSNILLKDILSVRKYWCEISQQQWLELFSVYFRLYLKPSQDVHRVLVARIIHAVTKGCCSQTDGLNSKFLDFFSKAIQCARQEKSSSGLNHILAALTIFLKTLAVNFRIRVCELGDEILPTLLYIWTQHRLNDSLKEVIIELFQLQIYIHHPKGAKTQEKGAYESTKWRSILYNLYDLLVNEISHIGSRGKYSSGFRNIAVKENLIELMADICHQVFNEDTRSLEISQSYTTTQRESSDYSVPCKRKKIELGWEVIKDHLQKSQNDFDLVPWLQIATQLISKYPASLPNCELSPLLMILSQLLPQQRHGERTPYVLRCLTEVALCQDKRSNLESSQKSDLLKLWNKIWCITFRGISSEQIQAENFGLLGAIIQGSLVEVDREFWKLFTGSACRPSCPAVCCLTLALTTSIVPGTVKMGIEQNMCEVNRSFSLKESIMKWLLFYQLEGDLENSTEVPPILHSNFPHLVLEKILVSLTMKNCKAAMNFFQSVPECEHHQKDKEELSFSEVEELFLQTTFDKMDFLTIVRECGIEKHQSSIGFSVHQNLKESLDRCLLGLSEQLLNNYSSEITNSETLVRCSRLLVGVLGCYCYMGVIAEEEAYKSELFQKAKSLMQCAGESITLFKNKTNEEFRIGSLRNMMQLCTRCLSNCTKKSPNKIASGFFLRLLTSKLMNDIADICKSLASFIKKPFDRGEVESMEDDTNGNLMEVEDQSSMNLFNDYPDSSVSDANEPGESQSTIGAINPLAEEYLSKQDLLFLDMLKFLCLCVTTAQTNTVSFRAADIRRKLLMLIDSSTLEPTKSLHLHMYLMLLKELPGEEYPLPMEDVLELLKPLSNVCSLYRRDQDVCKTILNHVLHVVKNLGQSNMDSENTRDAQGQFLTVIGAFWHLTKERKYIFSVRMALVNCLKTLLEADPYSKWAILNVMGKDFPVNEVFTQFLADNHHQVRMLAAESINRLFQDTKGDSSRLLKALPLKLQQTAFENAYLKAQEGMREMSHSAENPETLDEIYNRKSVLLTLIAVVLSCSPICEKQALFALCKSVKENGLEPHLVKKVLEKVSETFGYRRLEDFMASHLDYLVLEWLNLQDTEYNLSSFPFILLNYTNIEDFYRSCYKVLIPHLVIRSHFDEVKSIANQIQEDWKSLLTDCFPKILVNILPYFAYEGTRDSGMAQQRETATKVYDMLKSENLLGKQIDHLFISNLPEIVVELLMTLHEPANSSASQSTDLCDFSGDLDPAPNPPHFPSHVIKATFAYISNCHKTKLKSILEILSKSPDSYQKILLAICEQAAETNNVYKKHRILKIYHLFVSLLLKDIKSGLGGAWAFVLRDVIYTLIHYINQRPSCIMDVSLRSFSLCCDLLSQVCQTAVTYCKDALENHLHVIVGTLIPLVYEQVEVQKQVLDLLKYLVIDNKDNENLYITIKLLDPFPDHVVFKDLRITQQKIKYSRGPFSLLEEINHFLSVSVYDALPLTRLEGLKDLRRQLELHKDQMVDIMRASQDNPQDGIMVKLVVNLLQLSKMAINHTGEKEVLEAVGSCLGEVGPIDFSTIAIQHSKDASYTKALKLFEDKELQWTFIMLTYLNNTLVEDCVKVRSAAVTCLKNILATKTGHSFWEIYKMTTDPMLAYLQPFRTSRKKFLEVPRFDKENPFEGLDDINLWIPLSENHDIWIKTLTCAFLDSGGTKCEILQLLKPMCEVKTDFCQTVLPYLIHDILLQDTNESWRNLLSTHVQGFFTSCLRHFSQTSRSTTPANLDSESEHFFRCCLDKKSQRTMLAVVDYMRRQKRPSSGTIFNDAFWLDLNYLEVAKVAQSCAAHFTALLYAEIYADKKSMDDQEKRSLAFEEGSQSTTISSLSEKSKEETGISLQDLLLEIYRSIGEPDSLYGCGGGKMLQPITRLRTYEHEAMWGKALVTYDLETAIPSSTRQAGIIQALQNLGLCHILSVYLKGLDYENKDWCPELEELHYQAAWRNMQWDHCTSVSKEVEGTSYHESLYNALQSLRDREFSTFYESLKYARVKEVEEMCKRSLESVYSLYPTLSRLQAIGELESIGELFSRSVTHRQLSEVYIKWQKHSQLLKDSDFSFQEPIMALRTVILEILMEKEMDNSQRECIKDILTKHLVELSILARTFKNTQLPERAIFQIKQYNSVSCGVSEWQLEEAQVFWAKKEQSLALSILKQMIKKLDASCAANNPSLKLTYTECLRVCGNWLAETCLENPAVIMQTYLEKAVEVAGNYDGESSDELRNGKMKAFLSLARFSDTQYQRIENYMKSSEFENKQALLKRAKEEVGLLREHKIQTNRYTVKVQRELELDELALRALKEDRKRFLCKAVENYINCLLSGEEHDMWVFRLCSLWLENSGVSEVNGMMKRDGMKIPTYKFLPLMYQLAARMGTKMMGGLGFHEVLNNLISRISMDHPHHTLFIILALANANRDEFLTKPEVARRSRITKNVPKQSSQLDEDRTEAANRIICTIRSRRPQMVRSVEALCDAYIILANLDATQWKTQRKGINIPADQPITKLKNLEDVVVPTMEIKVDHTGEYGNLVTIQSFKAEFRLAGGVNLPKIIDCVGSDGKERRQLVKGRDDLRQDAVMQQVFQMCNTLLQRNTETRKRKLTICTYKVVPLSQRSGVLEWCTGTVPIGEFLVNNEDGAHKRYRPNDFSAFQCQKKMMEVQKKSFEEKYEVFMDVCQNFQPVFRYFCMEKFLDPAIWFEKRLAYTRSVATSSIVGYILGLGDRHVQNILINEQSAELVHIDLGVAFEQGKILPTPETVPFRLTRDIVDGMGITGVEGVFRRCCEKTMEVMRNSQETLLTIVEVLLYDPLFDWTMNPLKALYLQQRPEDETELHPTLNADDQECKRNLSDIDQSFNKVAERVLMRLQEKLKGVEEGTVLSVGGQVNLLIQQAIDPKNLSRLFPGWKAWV

Row | Structure (SMILES) | IC50 (ATR) | IC50 (ATM)
1 | CO[C@H]1C[C@H](n2c(=O)n(C)c3cnc4ccc(-c5ccc(N6CC[C@@H](N(C)C)C6)nc5)cc4c32)C1 [Example 11] | 1.08 µM | 0.77 nM
2 | CO[C@H]1CC[C@H](n2c(=O)n(C)c3cnc4ccc(-c5ccc(N6CC(N(C)C)C6)nc5)cc4c32)C1 (single isomer, unassigned) [Example 22, 8-[6-[3-(dimethylamino)azetidin-1-yl]-3-pyridyl]-1-[trans-3-methoxycyclopentyl]-3-methyl-imidazo[4,5-c]quinolin-2-one] | 6.71 µM | 13.4 nM
3 | CNC1CCN(c2ccc(-c3ccc4ncc5c(c4c3)n([C@H]3CCCOC3)c(=O)n5C)cn2)CC1 [Example 59, 3-methyl-8-[6-[4-(methylamino)-1-piperidyl]-3-pyridyl]-1-[(3S)-tetrahydropyran-3-yl]imidazo[4,5-c]quinolin-2-one] | > 30 µM | 1.38 nM
4 | CN(C)[C@H]1CCN(c2ccc(-c3cc4c(cc3F)ncc3c4n([C@@H]4CCCOC4)c(=O)n3C)cn2)C1 [Example 19] | > 30 µM | 63.4 nM
5 | CN(C)C1CCN(c2ccc(-c3ccc4ncc5c(c4c3)n(C3CCC3)c(=O)n5C)cn2)CC1 [Example 37, 1-cyclobutyl-8-[6-[4-(dimethylamino)-1-piperidyl]-3-pyridyl]-3-methyl-imidazo[4,5-c]quinolin-2-one] | > 30 µM | 0.911 nM
6 | CN(C)[C@H]1CCN(c2ccc(-c3ccc4ncc5c(c4c3)n([C@H]3CCCOC3)c(=O)n5C)cn2)C1 [Example 17] | > 30 µM | 13.7 nM
7 | CO[C@H]1C[C@@H](n2c(=O)n(C)c3cnc4ccc(-c5ccc(N6CC[C@@H](N(C)C)C6)nc5)cc4c32)C1 [Example 10] | 3.21 µM | 0.752 nM
8 | CN(C)[C@@H]1CCN(c2ccc(-c3ccc4ncc5c(c4c3)n([C@H]3CCCOC3)c(=O)n5C)cn2)C1 [Example 9] | 2.48 µM | 0.842 nM
9 | CN(C)C1CN(c2ccc(-c3ccc4ncc5c(c4c3)n([C@@H]3CCCOC3)c(=O)n5C)cn2)C1 [Example 27, 8-[6-[3-(dimethylamino)azetidin-1-yl]-3-pyridyl]-3-methyl-1-[(3R)-tetrahydropyran-3-yl]imidazo[4,5-c]quinolin-2-one] | 5.95 µM | 5.9 nM
10 | CO[C@H]1CCC[C@H](n2c(=O)n(C)c3cnc4ccc(-c5ccc(N6CC(N(C)C)C6)nc5)cc4c32)C1 (single isomer, unassigned) [Example 55, 8-[6-[3-(dimethylamino)azetidin-1-yl]-3-pyridyl]-1-[trans-3-methoxycyclohexyl]-3-methyl-imidazo[4,5-c]quinolin-2-one] | 0.804 µM | 3.38 nM
11 | CN(C)[C@@H]1CCN(c2ccc(-c3cc4c(cc3F)ncc3c4n([C@@H]4CCCOC4)c(=O)n3C)cn2)C1 [Example 14] |  | 1.51 nM
12 | CNC1CCN(c2ccc(-c3ccc4ncc5c(c4c3)n([C@@H]3CCCOC3)c(=O)n5C)cn2)CC1 [Example 58, 3-methyl-8-[6-[4-(methylamino)-1-piperidyl]-3-pyridyl]-1-[(3R)-tetrahydropyran-3-yl]imidazo[4,5-c]quinolin-2-one] | > 21.8 µM | 2.25 nM
13 | CN(C)C1CN(c2ccc(-c3ccc4ncc5c(c4c3)n(C3CCC3)c(=O)n5C)cn2)C1 [Example 26, 1-cyclobutyl-8-[6-[3-(dimethylamino)azetidin-1-yl]-3-pyridyl]-3-methyl-imidazo[4,5-c]quinolin-2-one] | > 20.1 µM | 9.29 nM
14 | CN(C)C1CCN(c2ccc(-c3ccc4ncc5c(c4c3)n(C3COC3)c(=O)n5C)cn2)CC1 [Example 38, 8-[6-[4-(dimethylamino)-1-piperidyl]-3-pyridyl]-3-methyl-1-(oxetan-3-yl)imidazo[4,5-c]quinolin-2-one] | > 30 µM | 3.91 nM
15 | CN(C)[C@@H]1CCN(c2ccc(-c3ccc4ncc5c(c4c3)n(C3CCOCC3)c(=O)n5C)cn2)C1 [Example 13] |  | > 23.9 nM
